Results published in ChEMBL document CHEMBL3758179, “Baicalin Alleviates Silica-Induced Lung Inflammation and Fibrosis by Inhibiting the Th17 Response in C57BL/6 Mice” (2015).
Active and inactive are the calls of the source. The rule behind the calls is not given here.

How the values were obtained:
Mus musculus [1] = assay: Antiinflammatory activity in C57BL/6 mouse silicosis model assessed as reduction in silica-induced accumulation of total cells in bronchoalveolar lavage fluid at 2 mg, ip administered every day measured on day 7,28 and 56 by Giemsa staining method; format: functional, organism-based
Mus musculus [2] = assay: Antiinflammatory activity in C57BL/6 mouse silicosis model assessed as reduction in silica-induced accumulation of neutrophils in bronchoalveolar lavage fluid at 2 mg, ip administered every day measured on day 7 by Giemsa staining method; format: functional, organism-based
Mus musculus [3] = assay: Antiinflammatory activity in C57BL/6 mouse silicosis model assessed as silica-induced accumulation of lymphocytes in bronchoalveolar lavage fluid at 2 mg, ip administered every day measured on day 7,28 and 56 by Giemsa staining method; format: functional, organism-based
Mus musculus [4] = assay: Antiinflammatory activity in C57BL/6 mouse silicosis model assessed as silica-induced accumulation of macrophages in bronchoalveolar lavage fluid at 2 mg, ip administered every day measured on day 7,28 and 56 by Giemsa staining method; format: functional, organism-based
Mus musculus [5] = assay: Antiinflammatory activity in C57BL/6 mouse silicosis model assessed as reduction in alveolar wall change at 2 mg, ip administered every day measured on day 7,28 and 56 by haematoxylin and eosin staining-based light microscopic analysis relative to silica-treated control; format: functional, organism-based
Mus musculus [6] = assay: Antiinflammatory activity in C57BL/6 mouse silicosis model assessed as reduction in inflammatory cell infiltration at 2 mg, ip administered every day measured on day 7,28 and 56 by haematoxylin and eosin staining-based light microscopic analysis relative to silica-treated control; format: functional, organism-based
Mus musculus [7] = assay: Inhibition of silica-induced lung fibrosis in C57BL/6 mouse silicosis model at 2 mg, ip administered every day measured on day 28 to 56 by Masson staining-based light microscopic analysis; format: functional, organism-based
Mus musculus [8] = assay: Inhibition of Th17 response in hilar lymph node in silica-induced C57BL/6 mouse lung inflammation and fibrosis model assessed as decrease in level of CD4+T cells coexpressing IL-17A at 2 mg, ip administered every day measured on day 7 by flow cytometric analysis (reference value: 1.08 +/- 0.07%); format: functional, CD4+T cell
Mus musculus [9] = assay: Inhibition of Th17 response in hilar lymph node in silica-induced C57BL/6 mouse lung inflammation and fibrosis model assessed as decrease in level of CD4+T cells coexpressing IL-17A at 2 mg, ip administered every day measured on day 28 by flow cytometric analysis (reference value: 0.76 +/- 0.07%); format: functional, CD4+T cell
Mus musculus [10] = assay: Inhibition of Th17 response in spleen in silica-induced C57BL/6 mouse lung inflammation and fibrosis model assessed as decrease in level of CD4+T cells coexpressing IL-17A at 2 mg, ip administered every day measured on day 7 by flow cytometric analysis (reference value: 0.9 +/- 0.11%); format: functional, CD4+T cell
Mus musculus [11] = assay: Inhibition of Th17 response in spleen in silica-induced C57BL/6 mouse lung inflammation and fibrosis model assessed as decrease in level of CD4+T cells coexpressing IL-17A at 2 mg, ip administered every day measured on day 28 by flow cytometric analysis (reference value: 0.68 +/- 0.07%); format: functional, CD4+T cell
Mus musculus [12] = assay: Inhibition of Th17 response in spleen in silica-induced C57BL/6 mouse lung inflammation and fibrosis model assessed as decrease in level of CD4+T cells coexpressing IL-17A at 2 mg, ip administered every day measured on day 56 by flow cytometric analysis (reference value: 0.6 +/- 0.03%); format: functional, CD4+T cell
Mus musculus [13] = assay: Inhibition of Th17 response in silica-induced C57BL/6 mouse lung inflammation and fibrosis model assessed as decrease in IL-17A mRNA expression in lung at 2 mg, ip administered every day measured on day 7 by real time RT-PCR method relative to silica-treated control; format: functional, organism-based
Mus musculus [14] = assay: Inhibition of Th17 response in silica-induced C57BL/6 mouse lung inflammation and fibrosis model assessed as decrease in RORgammat mRNA expression in spleen at 2 mg, ip administered every day measured on day 7, 28, 56 by real time RT-PCR method relative to silica-treated control; format: functional, organism-based
Mus musculus [15] = assay: Induction of Treg response in silica-induced C57BL/6 mouse lung inflammation and fibrosis model assessed as increase in level of CD4+T cells coexpressing Foxp3 in hilar lymph node at 2 mg, ip administered every day measured on day 7 by flow cytometric analysis (reference value: 12.14 +/- 0.53%); format: functional, CD4+T cell
Mus musculus [16] = assay: Induction of Treg response in silica-induced C57BL/6 mouse lung inflammation and fibrosis model assessed as increase in level of CD4+T cells coexpressing Foxp3 in hilar lymph node at 2 mg, ip administered every day measured on day 28 by flow cytometric analysis (reference value: 8.18 +/- 0.61%); format: functional, CD4+T cell
Mus musculus [17] = assay: Induction of Treg response in silica-induced C57BL/6 mouse lung inflammation and fibrosis model assessed as increase in level of CD4+T cells coexpressing Foxp3 in hilar lymph node at 2 mg, ip administered every day measured on day 56 by flow cytometric analysis (reference value: 8.76 +/- 0.23%); format: functional, CD4+T cell
Mus musculus [18] = assay: Induction of Treg response in silica-induced C57BL/6 mouse lung inflammation and fibrosis model assessed as increase in level of CD4+T cells coexpressing Foxp3 in spleen at 2 mg, ip administered every day measured on day 7 by flow cytometric analysis (reference value: 11.75 +/- 1.03%); format: functional, CD4+T cell
Mus musculus [19] = assay: Induction of Treg response in silica-induced C57BL/6 mouse lung inflammation and fibrosis model assessed as increase in level of CD4+T cells coexpressing Foxp3 in spleen at 2 mg, ip administered every day measured on day 28 by flow cytometric analysis (reference value: 10.88 +/- 0.55 %); format: functional, CD4+T cell
Mus musculus [20] = assay: Induction of Treg response in silica-induced C57BL/6 mouse lung inflammation and fibrosis model assessed as increase in level of CD4+T cells coexpressing Foxp3 in spleen at 2 mg, ip administered every day measured on day 56 by flow cytometric analysis (reference value: 10 +/- 0.53 %); format: functional, CD4+T cell
Mus musculus [21] = assay: Induction of Treg response in silica-induced C57BL/6 mouse lung inflammation and fibrosis model assessed as increase in TGF-beta mRNA expression at 2 mg, ip administered every day measured on day 7 by real time RT-PCR method relative to silica-treated control; format: functional, organism-based
Mus musculus [22] = assay: Induction of Treg response in silica-induced C57BL/6 mouse lung inflammation and fibrosis model assessed as increase in Foxp3 mRNA expression in lung at 2 mg, ip administered every day measured on day 28, 56 by real time RT-PCR method relative to silica-treated control; format: functional, organism-based
Mus musculus [23] = assay: Induction of Treg response in silica-induced C57BL/6 mouse lung inflammation and fibrosis model assessed as increase in IL-10 mRNA expression in lung at 2 mg, ip administered every day measured on day 7, 28 by real time RT-PCR method relative to silica-treated control; format: functional, organism-based
Mus musculus [24] = assay: Inhibition of Th1 response in silica-induced C57BL/6 mouse lung inflammation and fibrosis model assessed as decrease in IFN-gamma mRNA expression in lung at 2 mg, ip administered every day measured on day 7 by real time RT-PCR method relative to silica-treated control; format: functional, organism-based
Mus musculus [25] = assay: Inhibition of Th1 response in silica-induced C57BL/6 mouse lung inflammation and fibrosis model assessed as decrease in level of CD4+T cells coexpressing IFNgamma at 2 mg, ip administered every day measured on day 7 by flow cytometric analysis; format: functional, organism-based; conditions: CD4+T cell
Mus musculus [26] = assay: Inhibition of Th1 response in silica-induced C57BL/6 mouse lung inflammation and fibrosis model assessed as decrease in TNFalpha mRNA expression in bronchoalveolar lavage fluid at 2 mg, ip administered every day measured on day 7 by real time RT-PCR method; format: functional, organism-based
Mus musculus [27] = assay: Inhibition of Th2 response in silica-induced C57BL/6 mouse lung inflammation and fibrosis model assessed as decrease in GATA-3 mRNA expression in lung at 2 mg, ip administered every day measured on day 7, 56 by real time RT-PCR method relative to silica-treated control; format: functional, organism-based
Mus musculus [28] = assay: Inhibition of Th2 response in silica-induced C57BL/6 mouse lung inflammation and fibrosis model assessed as decrease in IL-4 level in bronchoalveolar lavage fluid at 2 mg, ip administered every day measured on day 7, 28, 56 by cytometric bead array method relative to silica-treated control; format: functional, organism-based
Mus musculus [29] = assay: Inhibition of Th17 cell differentiation in silica-induced C57BL/6 mouse lung inflammation and fibrosis model assessed as decrease in IL-6 mRNA expression in lung at 2 mg, ip administered every day measured on day 7 by real time RT-PCR method relative to silica-treated control; format: functional, organism-based
Mus musculus [30] = assay: Inhibition of Th17 cell differentiation in silica-induced C57BL/6 mouse lung inflammation and fibrosis model assessed as decrease in IL-6 mRNA expression in lung at 2 mg, ip administered every day measured on day 28, 56 by real time RT-PCR method relative to silica-treated control; format: functional, organism-based
Mus musculus [31] = assay: Inhibition of Th17 cell differentiation in silica-induced C57BL/6 mouse lung inflammation and fibrosis model assessed as decrease in IL-6 protein level in bronchoalveolar lavage fluid at 2 mg, ip administered every day measured on day 7 by cytometric bead array method relative to silica-treated control; format: functional, organism-based
Mus musculus [32] = assay: Inhibition of Th17 cell differentiation in silica-induced C57BL/6 mouse lung inflammation and fibrosis model assessed as decrease in IL-6 protein level in bronchoalveolar lavage fluid at 2 mg, ip administered every day measured on day 28 to 56 by cytometric bead array method; format: functional, organism-based
Mus musculus [33] = assay: Inhibition of Th17 cell differentiation in silica-induced C57BL/6 mouse lung inflammation and fibrosis model assessed as increase in IL-23 mRNA expression in lung at 2 mg, ip administered every day measured on day 7 by real time RT-PCR method relative to silica-treated control; format: functional, organism-based
Mus musculus [34] = assay: Inhibition of Th17 cell differentiation in silica-induced C57BL/6 mouse lung inflammation and fibrosis model assessed as increase in IL-23 mRNA expression in lung at 2 mg, ip administered every day measured on day 28, 56 by real time RT-PCR method relative to silica-treated control; format: functional, organism-based
Mus musculus [35] = assay: Induction of Treg response in silica-induced C57BL/6 mouse lung inflammation and fibrosis model assessed as increase in Foxp3 mRNA expression in spleen at 2 mg, ip administered every day measured on day 7, 28 by real time RT-PCR method relative to silica-treated control; format: functional, organism-based
Mus musculus [36] = assay: Inhibition of Th1 response in silica-induced C57BL/6 mouse lung inflammation and fibrosis model assessed as decrease in IFN-gamma mRNA expression in spleen at 2 mg, ip administered every day measured on day 7, 28 by real time RT-PCR method relative to silica-treated control; format: functional, organism-based

Q: How did the Activity (Mus musculus [1]) turn out when O=C(O)[C@H]1O[C@@H](Oc2cc3oc(-c4ccccc4)cc(=O)c3c(O)c2O)[C@H](O)[C@@H](O)[C@@H]1O [BAICALIN] was run?
A: Active

Q: What about the Activity (Mus musculus [2]) of the same molecule?
A: Active

Q: What about the Activity (Mus musculus [3]) of the same molecule?
A: Active

Q: What about the Activity (Mus musculus [4]) of the same molecule?
A: inactive

Q: What about the Activity (Mus musculus [5]) of the same molecule?
A: Active

Q: And the Activity (Mus musculus [6])?
A: Active

Q: What about the inhibition (Mus musculus [7]) of the same molecule?
A: Active

Q: And the “IL-17A+ CD4+ T cells” value (Mus musculus [8])?
A: 0.46%

Q: What about the “IL-17A+ CD4+ T cells” value (Mus musculus [9]) of the same molecule?
A: 0.5%

Q: What about the “IL-17A+ CD4+ T cells” value (Mus musculus [10]) of the same molecule?
A: 0.42%

Q: What about the “IL-17A+ CD4+ T cells” value (Mus musculus [11]) of the same molecule?
A: 0.42%

Q: And the “IL-17A+ CD4+ T cells” value (Mus musculus [12])?
A: 0.4%

Q: What about the inhibition (Mus musculus [13]) of the same molecule?
A: Active

Q: What about the inhibition (Mus musculus [14]) of the same molecule?
A: Active

Q: And the Activity (Mus musculus [15])?
A: 15.92%

Q: What about the Activity (Mus musculus [16]) of the same molecule?
A: 13.72%

Q: And the Activity (Mus musculus [17])?
A: 10.3%

Q: And the Activity (Mus musculus [18])?
A: 17.4%

Q: And the Activity (Mus musculus [19])?
A: 14.34%

Q: And the Activity (Mus musculus [20])?
A: 11.76%

Q: What about the Activity (Mus musculus [21]) of the same molecule?
A: Active

Q: And the Activity (Mus musculus [22])?
A: Active

Q: And the Activity (Mus musculus [23])?
A: Active

Q: What about the inhibition (Mus musculus [24]) of the same molecule?
A: Active

Q: And the inhibition (Mus musculus [25])?
A: Active

Q: And the inhibition (Mus musculus [26])?
A: Active

Q: And the inhibition (Mus musculus [27])?
A: Active

Q: And the inhibition (Mus musculus [28])?
A: Active

Q: What about the inhibition (Mus musculus [29]) of the same molecule?
A: Active

Q: And the inhibition (Mus musculus [30])?
A: inactive

Q: What about the inhibition (Mus musculus [31]) of the same molecule?
A: Active

Q: What about the inhibition (Mus musculus [32]) of the same molecule?
A: inactive

Q: And the inhibition (Mus musculus [33])?
A: inactive

Q: And the inhibition (Mus musculus [34])?
A: Active

Q: And the Activity (Mus musculus [35])?
A: Active

Q: What about the inhibition (Mus musculus [36]) of the same molecule?
A: Active
